Data set [1] deals with pulmonary artery smooth muscle cells. Kind of data set: Excessive proliferation of pulmonary artery smooth muscle cells (compound investigation). It is filed as cell-based. From the text:
Under such circumstances, the inventors of the present invention have investigated thousands of kinds of compounds. […] The present invention is based on such novel findings.

The test system of data set [2] is Sugen/hypoxia-induced hypertension rat model. Kind of data set: Sugen/hypoxia-induced pulmonary hypertension rat model, RVSP and RVH. It counts as in vivo, rats (Sprague-Dawley). The protocol: In this test, a vehicle treatment group was used as a control. A Sugen/hypoxia-induced hypertension rat model was used to assess pulmonary hypertension (PH) (Non-patent Literature 2). In order to assess the development of pulmonary hypertension, right ventricular systolic pressure (RVSP) and right ventricular hypertrophy (RVH) were measured (Non-patent Literatures 2 to 4).
For right heart catheterization, a 1.4-F (for rats) pressure measurement catheter (Transonic Scisense) was inserted into the right jugular vein and advanced into the right ventricle to measure RVSP (Non-patent Literature 5).
In the Sugen/hypoxia model, rats (Sprague-Dawley, male, 6-week-old) were injected subcutaneously with a VEGF-receptor inhibitor SU5416 (Sigma-Aldrich, St Louis, Mo.) (20 mg per kg body weight) under isoflurane anesthesia and were then exposed to hypoxia (10% O2) for 3 weeks. After the indicated period of treatment below, the rats were anesthetized with isoflurane (1.5%) to perform right heart catheterization. All data were analyzed using the PowerLab data acquisition system (AD Instruments, Bella Vista, Australia) and were averaged over 50 sequential beats (Non-patent Literatures 2 to 5).
Hearts were dissected and the right ventricular free wall (RV) was removed from the left ventricle (LV) and septum. The ratio of right ventricular free wall (RV) weight to left ventricle plus septum (LV+Septum) weight [RV/(LV+S)] was measured to assess the extent of RVH (Non-patent Literature 2).
Rats (Sprague-Dawley, male, 6-week-old) were injected subcutaneously with a VEGF-receptor inhibitor SU5416 (Sigma-Aldrich) (20 mg per kg body weight) under isoflurane anesthesia and were then exposed to hypoxia (10% 02) for 3 weeks (hypoxia+SU5416). On day 21, the rats were randomized to be intravenously injected with mebendazole (25 mg per kg body weight) or vehicle (the rats were administered dimethyl sulfoxide in place of mebendazole solution) once daily under normoxia (21% O2) for 2 weeks. The vehicle administration group is expressed as vehicle control. […] Thus, the development of PH was assessed.

The test system of data set [3] is Hypoxia-induced pulmonary hypertension mice. Kind of data set: Hypoxia-induced pulmonary hypertension mice, right heart catheterization. It counts as in vivo, mice (C57/BL6). Particulars: hypoxia (10% oxygen) 3 weeks, intravenous once daily, itraconazole 20 mg/kg/day, mebendazole 25 mg/kg/day, vs vehicle; for right ventricular systolic pressure: FIG. 1. On the procedure: (§1) Hypoxia-induced pulmonary hypertension mice serving as a model generally used in an animal experiment for pulmonary hypertension were intravenously administered itraconazole or mebendazole. Specifically, first, 8-week-old male wild-type mice (C57/BL6 mice, n=10 per group) were housed in a transparent acrylic box with an oxygen concentration controlled to 10% using a hypoxia generator (Teijin Limited, Japan) under a 12 h light and dark cycle. The mice were stimulated by hypoxia for 3 weeks, and in this period, were intravenously injected with itraconazole (the following solution was used as itraconazole: 100 mg of itraconazole was dissolved in 6.7 ml of dimethyl sulfoxide, and the solution of itraconazole in dimethyl sulfoxide was mixed with ultrapure water (mQ or ultrapure water) to prepare a 100 ml solution) once daily at a dose of 20 mg/kg/day. As a Vihicle group, the following test was performed: the mice were stimulated by hypoxia in the same manner as described above except that the mice were intravenously injected with a 1:15 (V/V) mixed solution of dimethyl sulfoxide and ultrapure water in place of itraconazole as a diet. In addition, a mebendazole administration test for hypoxia-induced pulmonary hypertension mice was performed in the same manner as described above except that the mice were intravenously injected with mebendazole in place of itraconazole (the following solution was used as mebendazole: 100 mg of mebendazole was dissolved in 6.7 ml of dimethyl sulfoxide, and the solution of mebendazole in dimethyl sulfoxide was mixed with ultrapure water (mQ or ultrapure water) to prepare a 100 ml solution) at a dose of 25 mg/kg/day.
After the hypoxic stimulation for 3 weeks, a 1.2-Fr catheter (SciSense Inc., Ontario, Canada) was inserted in the jugular vein of the mice under isoflurane anesthesia and advanced into the right ventricle to measure a right ventricular systolic pressure. The average body weights of the Vehicle group, the itraconazole administration group, and the mebendazole administration group before the test were 16.3±0.2 g, 16.8±0.3 g, and 16.8.±0.3 g, respectively. In addition, the average body weights of the Vehicle group, the itraconazole administration group, and the mebendazole administration group after the test were 18.±0.2 g, 17.2±0.2 g, and 17.5±0.2 g, respectively.

Data set [4] can be described thus: Body weight of rats with Sugen/hypoxia-induced PH. It counts as in vivo, rats (Sprague-Dawley). Particulars: mebendazole 25 mg per kg intravenously once daily for 14 days, vs vehicle control. The protocol: Rats (Sprague-Dawley, male, 6-week-old) were injected subcutaneously with a VEGF-receptor inhibitor SU5416 (Sigma-Aldrich) (20 mg per kg body weight) under isoflurane anesthesia and were then exposed to hypoxia (10% 02) for 3 weeks (hypoxia+SU5416). On day 21, the rats were randomized to be intravenously injected with mebendazole (25 mg per kg body weight) or vehicle (the rats were administered dimethyl sulfoxide in place of mebendazole solution) once daily under normoxia (21% O2) for 2 weeks. The vehicle administration group is expressed as vehicle control. […] On day 35, the rats were anesthetized with isoflurane (1.0%) to measure RVSP and RVH. Thus, the development of PH was assessed.

Data set [5] is described as follows: Body weight of hypoxia-induced pulmonary hypertension mice. It counts as in vivo, mice (C57/BL6). As to conditions: for average body weight after the test: after 3 weeks hypoxia and once daily intravenous dosing, itraconazole 20 mg/kg/day, mebendazole 25 mg/kg/day. The protocol: as §1
After the hypoxic stimulation for 3 weeks, a 1.2-Fr catheter (SciSense Inc., Ontario, Canada) was inserted in the jugular vein of the mice under isoflurane anesthesia and advanced into the right ventricle to measure a right ventricular systolic pressure. […]

The mark [6] stands for this setting: hypoxia+SU5416 3 weeks, then mebendazole 25 mg per kg intravenously once daily for 2 weeks under normoxia, day 35, vs vehicle control, FIG. 2.

“Also recorded” adds a separate entry of the source.

Regarding `COC(=O)Nc1nc2ccc(C(=O)c3ccccc3)cc2[nH]1` [mebendazole, methyl (5-benzoyl-1H-benzo[d]imidazol-2-yl)carbamate], the “excessive proliferation of pulmonary artery smooth muscle cells” value in data set [1] was “suppresses excessive proliferation”. Besides, in data set [2] (Sugen/hypoxia rats, mebendazole 25 mg per kg intravenously once daily for 14 days), the “PH in the animal model in vivo” value is given as “ameliorated”. In data set [2] (setting [6]), the “right ventricular hypertrophy (RVH), RV/(LV+S)” value is given as “reduced” and the “right ventricular systolic pressure (RVSP)” value is “reduced”. In data set [3], the right ventricular hypertrophy result was “Significant reductions” and the “right ventricular systolic pressure” value is “Significant reductions”. Moreover, the body weight entry in data set [4] is listed as “no significant difference; also recorded: no influence”. Besides, the “average body weight after the test” value in data set [5] turned out to be 17.5 ± 0.2 g.

`CCC(C)n1ncn(-c2ccc(N3CCN(c4ccc(OC[C@H]5CO[C@](Cn6cncn6)(c6ccc(Cl)cc6Cl)O5)cc4)CC3)cc2)c1=O` (stereo partly shown) [itraconazole]: in data set [1], the “excessive proliferation of pulmonary artery smooth muscle cells” value is given as “suppresses excessive proliferation”. In addition, in data set [3], the right ventricular hypertrophy result is recorded as “Significant reductions” and the “right ventricular systolic pressure” value is reported as “Significant reductions”. Also, the “average body weight after the test” value in data set [5] is 17.2 ± 0.2 g. In data set [5] (before the test (baseline), mice n=10 per group), the “average body weight before the test” value came to 16.8 ± 0.3 g.
